Assay results: ChEMBL document CHEMBL3871304, “Novel benzothiazine-piperazine derivatives by peptide-coupling as potential anti-proliferative agents” (2017)

Tests used:
Assay type in all cases: functional
[1] = Growth inhibition of human MDA-MB-231 cells after 48 hrs by SRB assay; settings: MDA-MB-231, 48 h
[2] = Growth inhibition of human IMR32 cells after 48 hrs by SRB assay; settings: IMR-32, 48 h
[3] = Growth inhibition of human HeLa cells after 48 hrs by SRB assay
[4] = Growth inhibition of human MiaPaCa cells after 48 hrs by SRB assay; settings: MIA PaCa-2, 48 h

Row | SMILES | GI50 [1] [µM] | GI50 [2] [µM] | GI50 ([3]; read-out: GI50) [µM] | GI50 ([3]; read-out: pGI50 (converted)) [µM] | GI50 [4] [µM]
1 | COc1ccccc1N1CCN(C(=O)CCN2C(=O)CSc3ccccc32)CC1 | 6.6 | > 100 | 11.9 | 12 | 34.9
2 | O=C(CCN1C(=O)CSc2ccccc21)N1CCN(c2ccc(C(F)(F)F)cc2)CC1 | 1 | 46.4 | 4.2 | 4.17 | > 100
3 | COc1cccc2c1C(=O)c1c(O)c3c(c(O)c1C2=O)C[C@@](O)(C(=O)CO)C[C@@H]3O[C@H]1C[C@H](N)[C@H](O)[C@H](C)O1 [DOXORUBICIN] | 0.073 | 0.025 | 0.083 | 0.0832 | 0.095
4 | CC(=O)O[C@H]1C(=O)[C@@]2(C)[C@H]([C@H](OC(=O)c3ccccc3)[C@]3(O)C[C@H](OC(=O)[C@H](O)[C@@H](NC(=O)c4ccccc4)c4ccccc4)C(C)=C1C3(C)C)[C@]1(OC(C)=O)CO[C@@H]1C[C@@H]2O [PACLITAXEL] | 0.092 | 0.086 | 0.039 | 0.0389 | 0.06
5 | O=C(CCN1C(=O)CSc2ccccc21)N1CCSCC1 | 6 | 21.7 | 18.5 | 18.6 | > 100
6 | O=C(CCN1C(=O)CSc2ccccc21)N1CCN(c2ccccc2F)CC1 | 1.6 | > 100 | 61 | 61.7 | > 100
7 | COc1ccccc1N1CCN(CCCNC(=O)CCN2C(=O)CSc3ccccc32)CC1 | 2 | > 100 | 0.97 | 0.977 | 59.2
8 | O=C(CCN1C(=O)CSc2ccccc21)NCCCN1CCN(c2ccc([N+](=O)[O-])cc2)CC1 | > 100 | 0.46 | > 100 | 100 | > 100
9 | CC(C)(C)OC(=O)N1CCN(C(=O)CCN2C(=O)CSc3ccccc32)CC1 | > 100 | > 100 | > 100 | 100 | 51.5
10 | O=C(CCN1C(=O)CSc2ccccc21)N1CCN(c2ccc(F)cc2)CC1 | 2.2 | 10 | 5.4 | 5.37 | > 100
11 | O=C(CCN1C(=O)CSc2ccccc21)NCCCN1CCN(c2ccc(C(F)(F)F)cc2)CC1 | 20.4 | 1.4 | 5.7 | 5.75 | > 100
12 | O=C(CCN1C(=O)CSc2ccccc21)NCCCN1CCC(Cc2ccccc2)CC1 | 27.6 | 1.5 | 56.2 | 56.2 | > 100
13 | O=C(CCN1C(=O)CSc2ccccc21)N1CCN(c2ccc([N+](=O)[O-])cc2)CC1 | 5.6 | 0.34 | 8.4 | 8.32 | 68.1
14 | O=C(CCN1C(=O)CSc2ccccc21)NCCCN1CCN(c2ccccc2F)CC1 | 4.6 | 1.4 | 1.4 | 1.41 | > 100
15 | O=C(CCN1C(=O)CSc2ccccc21)N1CCC(Cc2ccccc2)CC1 | 3.8 | 0.1 | 17.7 | 17.8 | 56.8
16 | O=C(CCN1C(=O)CSc2ccccc21)NCCCN1CCSCC1 | 0.63 | 0.82 | 0.12 | 0.12 | 83.3
17 | O=C(CCN1C(=O)CSc2ccccc21)NCCCN1CCN(c2ccccc2)CC1 | < 0.01 | > 100 | 2.17 | 2.19 | > 100
18 | O=C(CCN1C(=O)CSc2ccccc21)N1CCN(c2ccccc2)CC1 | 5.4 | < 0.01 | 41.9 | 41.7 | > 100
